Measurements: paper PMC2248166, “Quantitative peptide binding motifs for 19 human and mouse MHC class I molecules derived using positional scanning combinatorial peptide libraries” (Immunome Research, 2008)

What was measured:
Assay type in all cases: binding
H-2 K^k = H-2 K^k (Mus musculus, UniProt P04223)
H-2 D^d = H-2 D^d (Mus musculus, UniProt P01900)
HLA B*3501 = HLA B*3501 (Homo sapiens, UniProt P01889, A329T/A93T/A95T/C349S/D201E/D98Y/E176V/E187L/E204Q/E69T/I218V/K202T/L119I/Q94N/R155S/R180L/S121R/S35A/S48A/T118I/V127L/V306I/V36M/Y140S/Y91F)
HLA B*5802 = HLA B*5802 (Homo sapiens, UniProt P01889, A329T/C349S/D201E/D98Y/E176V/E187L/E204Q/E69T/G107R/I218V/I90N/K202T/L105A/N104I/N87E/Q89R/Q94S/R106L/R155S/R180L/R86G/S101N/S121W/S35A/S48A/V127L/V306I/V36M/Y140S/Y91M)
HLA B*5401 = HLA B*5401 (Homo sapiens, UniProt P01889, A329T/C349S/D138N/D201E/E176V/E187T/E204Q/E69G/I76V/K202T/L119W/R155S/R180L/S121T/S35A/S48A/V127L/V306I/V36M/Y140L)
HLA B*5301 = HLA B*5301 (Homo sapiens, UniProt P01889, A329T/A93T/A95T/C349S/D201E/D98Y/E176V/E187L/E204Q/E69T/G107R/I218V/K202T/L105A/L119I/N104I/Q94N/R106L/R155S/R180L/S101N/S121R/S35A/S48A/T118I/V127L/V306I/V36M/Y140S/Y91F)
H-2 K^d = H-2 K^d (Mus musculus, UniProt P01902)
H-2 K^d, sequence (P01887 21-119): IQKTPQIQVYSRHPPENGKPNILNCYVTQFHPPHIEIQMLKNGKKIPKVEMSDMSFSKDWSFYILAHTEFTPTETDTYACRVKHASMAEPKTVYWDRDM
H-2 K^d, sequence (P01902 22-368): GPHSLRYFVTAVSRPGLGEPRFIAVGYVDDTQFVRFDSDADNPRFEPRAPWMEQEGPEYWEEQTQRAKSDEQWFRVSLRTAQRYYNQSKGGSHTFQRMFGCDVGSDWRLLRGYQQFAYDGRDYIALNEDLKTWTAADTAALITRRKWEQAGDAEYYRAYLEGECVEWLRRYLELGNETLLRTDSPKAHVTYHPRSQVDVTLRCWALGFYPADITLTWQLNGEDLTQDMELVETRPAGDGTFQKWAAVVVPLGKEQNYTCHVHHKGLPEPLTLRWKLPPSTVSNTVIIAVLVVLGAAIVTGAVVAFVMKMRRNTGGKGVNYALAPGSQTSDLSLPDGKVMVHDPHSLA

HLA B*1503 = HLA B*1503 (Homo sapiens, UniProt P01889, A329T/A93T/A95T/C349S/D201E/D98Y/E187L/E204Q/K202T/N87E/Q94N/R155S/R180L/S121R/S35A/V306I/V36M/Y140S/Y91S); test: biochemical
HLA A*6802 = HLA A*6802 (Homo sapiens, UniProt P04439, A269V/D140Y/D185E/E176V/E277Q/E87N/F33Y/G231S/I121R/I166T/I218V/L180W/L300P/L318F/N151K/P208A/P217A/Q86R/R138H/R169H/S129P/T345S/V36M)
HLA B*1501 = HLA B*1501 (Homo sapiens, UniProt P01889, A329T/A93T/A95T/C349S/D201E/D98Y/E187L/E204Q/E69M/E70A/K202T/N87E/Q94N/R155S/R180W/S121R/S35A/S48A/V306I/V36M/Y140S/Y91S); test: biochemical
HLA A*3201 = HLA A*3201 (Homo sapiens, UniProt P04439, A270S/D101S/D185E/E176V/E277Q/F133L/G103R/G107R/G231S/H175R/I121M/I218V/I322F/K168Q/L105A/L300P/L318F/M331R/P208A/P217A/Q94H/R106L/R138Q/S129P/T104I/T323A/T345S/V100E/V321M/V358M); test: biochemical
HLA B*5801 = HLA B*5801 (Homo sapiens, UniProt P01889, A329T/C349S/D201E/D98Y/E176V/E187L/E204Q/E69T/G107R/I218V/I90N/K202T/L105A/L119I/N104I/N87E/Q89R/Q94S/R106L/R155S/R180L/R86G/S101N/S121R/S35A/S48A/T118I/V127L/V306I/V36M/Y140S/Y91M)
HLA A*3001 = HLA A*3001 (Homo sapiens, UniProt P04439, D140H/D185E/E176W/F33S/G80R/H175R/K168Q/R138E/R41S); test: biochemical
HLA B*0801 = HLA B*0801 (Homo sapiens, UniProt P01889, A93T/A95T/D138N/E176V/E187T/K202T/Q94N/R180D/S35A/V36M/Y33D/Y91F); test: biochemical
HLA B*5101 = HLA B*5101 (Homo sapiens, UniProt P01889, A329T/A93T/A95T/C349S/D138N/D201E/D98Y/E187L/E204Q/E69T/G107R/I218V/K202T/L105A/L119W/N104I/Q94N/R106L/R155S/R180L/S101N/S121T/S35A/S48A/V306I/V36M/Y195H/Y91F)
H-2 D^b = H-2 D^b (Mus musculus, UniProt P01899)
H-2 D^b, sequence (P01887 21-119): as the sequence (P01887 21-119) above
H-2 D^b, sequence (P01899 25-362): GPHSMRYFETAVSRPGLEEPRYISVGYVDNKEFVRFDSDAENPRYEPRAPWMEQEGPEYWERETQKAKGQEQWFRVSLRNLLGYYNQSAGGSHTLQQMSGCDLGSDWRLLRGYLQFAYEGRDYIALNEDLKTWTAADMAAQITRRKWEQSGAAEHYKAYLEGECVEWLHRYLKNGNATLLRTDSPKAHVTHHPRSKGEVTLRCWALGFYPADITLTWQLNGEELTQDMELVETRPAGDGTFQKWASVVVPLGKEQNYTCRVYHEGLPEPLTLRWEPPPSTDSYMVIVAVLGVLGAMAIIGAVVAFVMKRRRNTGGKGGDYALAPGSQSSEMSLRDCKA

H-2 K^k, sequence (P01887 21-119): as the sequence (P01887 21-119) above
H-2 K^k, sequence (P04223 22-369): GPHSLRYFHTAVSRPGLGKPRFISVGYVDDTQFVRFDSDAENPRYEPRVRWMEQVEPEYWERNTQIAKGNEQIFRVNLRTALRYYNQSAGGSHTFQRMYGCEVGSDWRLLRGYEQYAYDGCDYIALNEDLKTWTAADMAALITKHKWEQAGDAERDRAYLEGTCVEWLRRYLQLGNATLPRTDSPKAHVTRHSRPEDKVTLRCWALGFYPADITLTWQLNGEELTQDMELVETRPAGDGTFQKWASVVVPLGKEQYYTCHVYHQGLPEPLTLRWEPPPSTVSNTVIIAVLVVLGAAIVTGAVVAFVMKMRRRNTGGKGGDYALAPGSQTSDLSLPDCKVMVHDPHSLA
H-2 D^d, sequence (P01900 whole entry, looked up): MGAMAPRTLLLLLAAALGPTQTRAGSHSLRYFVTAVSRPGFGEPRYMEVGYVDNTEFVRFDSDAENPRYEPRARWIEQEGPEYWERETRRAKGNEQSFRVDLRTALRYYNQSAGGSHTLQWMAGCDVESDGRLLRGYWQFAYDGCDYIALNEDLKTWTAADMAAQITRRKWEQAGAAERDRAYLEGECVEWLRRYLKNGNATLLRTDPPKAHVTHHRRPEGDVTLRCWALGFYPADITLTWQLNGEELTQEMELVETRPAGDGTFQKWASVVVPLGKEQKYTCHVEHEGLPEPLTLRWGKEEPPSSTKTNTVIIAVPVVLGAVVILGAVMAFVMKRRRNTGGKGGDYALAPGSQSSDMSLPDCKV

Sequence	Normalized average relative binding affinity(ARB) (H-2 K^k)	Normalized average relative binding affinity(ARB) (H-2 D^d)	Normalized average relative binding affinity(ARB) (HLA B*3501)	Normalized average relative binding affinity(ARB) (HLA B*5802)	Normalized average relative binding affinity(ARB) (HLA B*5401)	Normalized average relative binding affinity(ARB) (HLA B*5301)	Normalized average relative binding affinity(ARB) (H-2 K^d)	Normalized average relative binding affinity(ARB) (HLA B*1503)	Normalized average relative binding affinity(ARB) (HLA A*6802)	Normalized average relative binding affinity(ARB) (HLA B*1501)	Normalized average relative binding affinity(ARB) (HLA A*3201)	Normalized average relative binding affinity(ARB) (HLA B*5801)	Normalized average relative binding affinity(ARB) (HLA A*3001)	Normalized average relative binding affinity(ARB) (HLA B*0801)	Normalized average relative binding affinity(ARB) (HLA B*5101)	Normalized average relative binding affinity(ARB) (H-2 D^b)
XXXXXXXEX [3064.0144]	0.46	0.65	0.098	0.30	0.13	0.10	0.55	0.11	0.14	0.23	0.27	0.18	0.12	0.24	0.34	0.33
XXXRXXXXX [3064.0075]	0.34	0.62	0.059	0.96	0.069	0.11	0.20	0.50	0.057	0.28	0.22	0.67	0.52	0.86	0.40	0.63
XXXFXXXXX [3064.0065]	0.38	0.96	0.10	0.45	0.31	0.21	0.098	0.41	0.74	0.42	1.0	0.31	1.0	0.55	0.64	0.38
XXXXVXXXX [3064.0098]	0.18	0.25	0.22	0.87	0.042	0.18	0.24	0.24	0.51	0.56	0.47	1.0	0.35	0.019	0.36	0.021
